Assay results published in patent US6362226B1, “Modulation of in vivo glutamine and glycine levels in the treatment of autism” (Vanderbilt University, priority 1999, dated 2002).

System: autistic patients
Test: Open-label dextromethorphan treatment of autistic patients B and F with elevated plasma glutamine and/or glycine, rated by treatment-blinded observers
Type: in vivo, human
From the text: Autistic patients were screened for elevated plasma levels of glutamine or glycine, or both. Five of 36 patients had elevated levels of either or both amino acids. One patient, “B”, had been diagnosed as having autism […] and 10 months. […] Further, B had elevated levels of glutamine in their cerebrospinal fluid, although their glycine levels were within the normal range. Their routine chemistry lab tests, including their urine organic acid profile, were normal. Patient “F” had persistent elevated glycine levels on multiple amino acid profiles which ranged from 324 to 439 μmol/L, where normal levels are from 120 to 315 μmol/L.
Both patients B and F were treated with dextromethorphan at 5 mg/kg body weight/day in the form of a cough and cold preparation sold under the registered trademark DELSYM® by McNeilLab, Inc. of Spring House, Pa., divided BID.
Example 1 discloses that 5/36 (14%) of children with autism have increased plasma levels of glutamine, glycine or both glutamine and glycine. In Example 1, an autistic patient with elevated glutamine and glycine and an autistic patient with glycine were treated with DM at 5 mg/kg body weight/day. […] The procedures of Example 1, however, were uncontrolled and open-label. In Example 2, treatment of children with autism with PB, SB or combinations of PB, SB and DM is systematically evaluated.

COc1ccc2c(c1)[C@]13CCCC[C@@H]1[C@H](C2)N(C)CC3 [dextromethorphan]
response upon resumption of long-term dextromethorphan treatment (patients B and F): responded as before and have continued to respond
expressive and receptive language skills, attention span and focus, motor planning and socialization with peers (patients B and F, 5 mg/kg body weight/day divided BID as DELSYM, teachers and therapists blinded to treatment): significant improvement
behavior after withdrawal of dextromethorphan treatment (patients B and F, treatment-blinded observers, all areas previously improved): regression in all of these areas of behavior measurement
autistic behavior (two autistic patients, DM 5 mg/kg body weight/day, uncontrolled, open-label): clinical improvement
